In ChEMBL document CHEMBL1154357, “Total synthesis of (-)-uniflorine A” (J Nat Prod, 2009) one finds IC50 data, which are given here for two compounds.

This assay concerns the target Sucrase-isomaltase, intestinal (Rattus norvegicus, UniProt P23739). The experiment in a line: Inhibition of rat intestinal sucrase.

Chain of Sucrase-isomaltase, intestinal (P23739 1-1013 limits assumed): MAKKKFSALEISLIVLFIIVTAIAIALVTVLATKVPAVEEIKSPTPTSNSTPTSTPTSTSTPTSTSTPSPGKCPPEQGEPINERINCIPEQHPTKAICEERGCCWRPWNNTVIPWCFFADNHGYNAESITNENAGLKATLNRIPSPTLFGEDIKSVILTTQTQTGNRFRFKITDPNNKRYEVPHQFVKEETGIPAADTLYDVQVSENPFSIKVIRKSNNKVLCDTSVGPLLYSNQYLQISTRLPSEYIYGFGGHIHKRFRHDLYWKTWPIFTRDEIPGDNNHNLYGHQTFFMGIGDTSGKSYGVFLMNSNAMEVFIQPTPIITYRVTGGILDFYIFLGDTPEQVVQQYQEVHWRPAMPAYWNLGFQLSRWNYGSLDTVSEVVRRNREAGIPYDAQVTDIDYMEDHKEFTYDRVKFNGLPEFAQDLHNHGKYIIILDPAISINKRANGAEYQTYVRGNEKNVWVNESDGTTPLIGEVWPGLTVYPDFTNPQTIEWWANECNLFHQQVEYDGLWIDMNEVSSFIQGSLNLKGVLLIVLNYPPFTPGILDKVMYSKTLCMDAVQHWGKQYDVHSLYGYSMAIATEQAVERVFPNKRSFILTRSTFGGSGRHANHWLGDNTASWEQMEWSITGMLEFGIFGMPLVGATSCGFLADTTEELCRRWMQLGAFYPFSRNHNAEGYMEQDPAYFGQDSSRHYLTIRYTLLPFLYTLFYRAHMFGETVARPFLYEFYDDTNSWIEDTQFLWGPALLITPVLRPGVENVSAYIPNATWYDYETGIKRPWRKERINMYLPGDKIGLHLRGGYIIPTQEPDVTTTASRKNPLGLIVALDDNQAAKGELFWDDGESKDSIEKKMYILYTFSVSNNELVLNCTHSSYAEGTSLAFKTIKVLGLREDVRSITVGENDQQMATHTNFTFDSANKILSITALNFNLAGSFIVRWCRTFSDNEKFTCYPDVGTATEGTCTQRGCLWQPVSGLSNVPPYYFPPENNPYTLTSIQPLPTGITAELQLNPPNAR
Chain of Sucrase-isomaltase, intestinal (P23739 1014-1841 limits assumed): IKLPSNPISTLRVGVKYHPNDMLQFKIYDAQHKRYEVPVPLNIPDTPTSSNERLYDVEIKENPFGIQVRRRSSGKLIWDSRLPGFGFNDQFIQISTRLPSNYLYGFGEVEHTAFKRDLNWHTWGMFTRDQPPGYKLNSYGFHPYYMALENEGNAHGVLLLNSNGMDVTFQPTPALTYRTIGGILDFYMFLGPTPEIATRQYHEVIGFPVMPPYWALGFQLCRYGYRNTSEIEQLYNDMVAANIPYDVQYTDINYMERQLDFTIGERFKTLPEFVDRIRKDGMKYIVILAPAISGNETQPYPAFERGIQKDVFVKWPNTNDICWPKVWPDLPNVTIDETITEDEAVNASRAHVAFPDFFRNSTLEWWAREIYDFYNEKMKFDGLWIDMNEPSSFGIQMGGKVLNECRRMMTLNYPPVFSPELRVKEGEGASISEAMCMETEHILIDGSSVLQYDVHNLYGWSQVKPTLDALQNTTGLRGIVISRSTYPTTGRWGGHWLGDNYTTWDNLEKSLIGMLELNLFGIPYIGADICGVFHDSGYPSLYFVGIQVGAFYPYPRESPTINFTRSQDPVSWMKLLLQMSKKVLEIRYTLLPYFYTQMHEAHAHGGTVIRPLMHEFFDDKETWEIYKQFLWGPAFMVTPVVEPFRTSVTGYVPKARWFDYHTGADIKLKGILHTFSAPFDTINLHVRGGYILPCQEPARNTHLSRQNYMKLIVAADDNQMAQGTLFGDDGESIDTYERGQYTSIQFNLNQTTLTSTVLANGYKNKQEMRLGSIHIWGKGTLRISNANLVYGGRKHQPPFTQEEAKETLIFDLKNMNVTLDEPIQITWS

What is called IC50 is the point on the concentration scale where inhibition reaches its midpoint. In turn, `O[C@H]1[C@H](O)[C@@H](O)CN2C[C@@H](O)[C@@H](O)[C@H]12` showed an IC50 of 3100 nM. This counts as single-digit micromolar.
The figure for `O[C@H]1[C@H]2[C@H](O)[C@H](O)CN2[C@H](O)C[C@H]1O` [UNIFLORINE B] is 1800 nM.
